The source made the active and inactive calls.
How the values were obtained:
[1] = target: Peroxisome proliferator-activated receptor gamma/Nuclear receptor coactivator 1 (Homo sapiens, UniProt P37231); assay: (§1) TR-FRET dose response biochemical High Throughput Screening assay for agonists of the steroid receptor coactivator 1 (SRC-1) recruitment by the peroxisome proliferator-activated receptor gamma (PPAR gamma): non-selective agonists. [Related pubchem assays (depositor defined):AID1300, AID1808, AID504735, AID631]; type: protein assay
Peroxisome proliferator-activated receptor gamma/Nuclear receptor coactivator 1, sequence (P37231 whole entry): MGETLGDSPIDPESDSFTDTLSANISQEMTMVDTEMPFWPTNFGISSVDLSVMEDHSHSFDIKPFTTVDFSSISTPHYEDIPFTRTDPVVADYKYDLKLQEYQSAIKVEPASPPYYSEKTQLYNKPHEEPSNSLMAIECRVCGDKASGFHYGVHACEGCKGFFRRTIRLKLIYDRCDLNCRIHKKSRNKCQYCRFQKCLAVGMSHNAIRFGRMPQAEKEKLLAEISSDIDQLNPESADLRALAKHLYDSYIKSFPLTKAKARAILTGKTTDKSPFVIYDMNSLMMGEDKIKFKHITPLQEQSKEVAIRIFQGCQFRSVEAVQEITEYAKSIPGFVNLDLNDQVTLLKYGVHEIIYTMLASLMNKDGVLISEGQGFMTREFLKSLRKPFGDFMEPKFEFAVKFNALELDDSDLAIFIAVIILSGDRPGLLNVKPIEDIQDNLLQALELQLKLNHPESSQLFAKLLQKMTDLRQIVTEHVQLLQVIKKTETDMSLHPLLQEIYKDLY
Peroxisome proliferator-activated receptor gamma/Nuclear receptor coactivator 1, sequence (Q15788 whole entry, further chain): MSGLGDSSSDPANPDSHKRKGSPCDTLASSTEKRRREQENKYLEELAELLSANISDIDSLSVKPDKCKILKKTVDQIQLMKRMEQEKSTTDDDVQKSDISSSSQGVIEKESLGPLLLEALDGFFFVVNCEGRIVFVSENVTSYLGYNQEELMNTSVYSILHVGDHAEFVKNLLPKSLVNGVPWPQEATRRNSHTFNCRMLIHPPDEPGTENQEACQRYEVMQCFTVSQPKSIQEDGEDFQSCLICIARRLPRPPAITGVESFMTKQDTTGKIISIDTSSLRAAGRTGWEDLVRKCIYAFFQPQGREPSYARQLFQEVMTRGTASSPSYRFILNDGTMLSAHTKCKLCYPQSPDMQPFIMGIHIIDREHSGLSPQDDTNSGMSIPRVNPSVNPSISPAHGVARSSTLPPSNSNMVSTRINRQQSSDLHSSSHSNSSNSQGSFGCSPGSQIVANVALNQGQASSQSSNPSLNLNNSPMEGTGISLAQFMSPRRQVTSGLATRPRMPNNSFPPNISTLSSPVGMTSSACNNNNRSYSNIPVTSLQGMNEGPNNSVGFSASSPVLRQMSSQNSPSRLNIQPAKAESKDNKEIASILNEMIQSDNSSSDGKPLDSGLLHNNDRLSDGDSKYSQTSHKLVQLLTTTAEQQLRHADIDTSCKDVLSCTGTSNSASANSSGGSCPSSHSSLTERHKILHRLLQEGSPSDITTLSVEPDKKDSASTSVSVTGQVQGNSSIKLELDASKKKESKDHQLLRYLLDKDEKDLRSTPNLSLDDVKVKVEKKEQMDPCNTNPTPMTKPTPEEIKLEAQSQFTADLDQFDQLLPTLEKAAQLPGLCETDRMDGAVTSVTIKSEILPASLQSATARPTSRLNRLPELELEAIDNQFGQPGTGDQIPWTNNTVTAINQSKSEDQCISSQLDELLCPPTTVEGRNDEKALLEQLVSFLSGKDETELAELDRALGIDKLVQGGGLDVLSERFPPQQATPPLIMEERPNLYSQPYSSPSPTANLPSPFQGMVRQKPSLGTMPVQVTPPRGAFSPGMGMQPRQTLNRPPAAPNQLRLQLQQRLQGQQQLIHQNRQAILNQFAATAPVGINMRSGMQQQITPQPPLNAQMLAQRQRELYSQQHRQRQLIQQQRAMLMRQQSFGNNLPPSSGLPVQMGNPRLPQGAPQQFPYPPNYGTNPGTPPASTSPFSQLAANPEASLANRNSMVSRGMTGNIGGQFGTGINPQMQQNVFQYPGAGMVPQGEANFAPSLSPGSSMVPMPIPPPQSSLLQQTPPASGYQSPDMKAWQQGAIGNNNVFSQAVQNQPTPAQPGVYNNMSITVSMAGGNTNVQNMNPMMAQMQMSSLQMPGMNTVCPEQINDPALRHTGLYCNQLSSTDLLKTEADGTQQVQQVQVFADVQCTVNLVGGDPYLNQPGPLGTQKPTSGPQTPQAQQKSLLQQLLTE

[2] = target: Peroxisome proliferator-activated receptor gamma/Nuclear receptor coactivator 3 (Homo sapiens, UniProt P37231); assay: as §1, with “3 (SRC-3)” for “1 (SRC-1)”, “assays: 1301 (Confirmation screen.), 1048 (Primary screen.)]” for “assays (depositor defined):AID1300, AID1808, AID504735, AID631]”; type: functional
Peroxisome proliferator-activated receptor gamma/Nuclear receptor coactivator 3, sequence (P37231 whole entry): as the sequence (P37231 whole entry) above
Peroxisome proliferator-activated receptor gamma/Nuclear receptor coactivator 3, sequence (Q9Y6Q9 whole entry, further chain): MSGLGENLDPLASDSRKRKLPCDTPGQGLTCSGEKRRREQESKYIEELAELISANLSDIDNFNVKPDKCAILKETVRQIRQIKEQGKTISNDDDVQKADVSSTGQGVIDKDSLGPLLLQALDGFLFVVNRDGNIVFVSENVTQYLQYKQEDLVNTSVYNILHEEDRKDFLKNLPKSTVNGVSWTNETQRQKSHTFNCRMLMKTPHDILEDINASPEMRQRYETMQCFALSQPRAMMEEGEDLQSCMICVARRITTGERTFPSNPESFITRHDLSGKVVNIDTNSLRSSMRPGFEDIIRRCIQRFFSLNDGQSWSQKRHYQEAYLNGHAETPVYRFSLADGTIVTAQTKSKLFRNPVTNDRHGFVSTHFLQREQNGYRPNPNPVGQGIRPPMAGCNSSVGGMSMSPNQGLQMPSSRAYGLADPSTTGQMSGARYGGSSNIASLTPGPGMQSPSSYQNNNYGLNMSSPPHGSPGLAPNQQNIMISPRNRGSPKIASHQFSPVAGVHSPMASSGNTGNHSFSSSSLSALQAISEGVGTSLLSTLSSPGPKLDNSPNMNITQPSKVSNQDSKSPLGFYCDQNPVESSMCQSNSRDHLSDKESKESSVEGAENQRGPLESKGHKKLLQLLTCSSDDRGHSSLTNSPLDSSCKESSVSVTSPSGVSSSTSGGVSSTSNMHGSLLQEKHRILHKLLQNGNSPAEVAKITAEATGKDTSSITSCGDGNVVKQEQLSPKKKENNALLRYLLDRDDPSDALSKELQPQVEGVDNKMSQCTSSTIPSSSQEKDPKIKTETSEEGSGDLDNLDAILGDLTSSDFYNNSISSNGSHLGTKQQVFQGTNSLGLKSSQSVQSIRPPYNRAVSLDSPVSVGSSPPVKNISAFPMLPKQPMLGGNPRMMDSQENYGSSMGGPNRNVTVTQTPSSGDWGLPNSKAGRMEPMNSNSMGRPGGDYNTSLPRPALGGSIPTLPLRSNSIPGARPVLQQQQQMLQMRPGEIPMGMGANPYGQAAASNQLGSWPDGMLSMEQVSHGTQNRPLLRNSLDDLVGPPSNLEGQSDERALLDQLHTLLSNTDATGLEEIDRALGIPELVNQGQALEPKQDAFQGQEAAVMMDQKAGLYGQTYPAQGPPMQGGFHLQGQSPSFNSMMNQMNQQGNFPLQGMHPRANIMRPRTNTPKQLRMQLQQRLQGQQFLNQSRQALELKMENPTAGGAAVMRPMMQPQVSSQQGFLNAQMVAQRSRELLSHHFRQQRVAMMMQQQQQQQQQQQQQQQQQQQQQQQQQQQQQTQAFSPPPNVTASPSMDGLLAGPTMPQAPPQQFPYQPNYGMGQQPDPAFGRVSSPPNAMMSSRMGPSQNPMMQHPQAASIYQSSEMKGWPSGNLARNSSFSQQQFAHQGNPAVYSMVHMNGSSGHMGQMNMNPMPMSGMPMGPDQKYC

[3] = target: Peroxisome proliferator-activated receptor gamma/Nuclear receptor coactivator 2 (Homo sapiens, UniProt P37231); assay: TR-FRET dose response biochemical High Throughput Screening assay for agonists of the steroid receptor coactivator 2 (SRC-2) recruitment by the peroxisome proliferator-activated receptor gamma (PPAR gamma): non-selective agonists. [Related pubchem assays: 1297, 1032 ]; type: functional
[4] = HEK-293T cell viability reduction – luminescence, B-cell screen hits, cytotoxicity control for BCR NF-kB inhibitor project, dose response (AID 489021); type: functional, cell-based;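 also: HEK-293T cells carrying an NF-kB luciferase reporter; cells exposed to compound for about 14 hours before viability readout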
Large T antigen = Large T antigen (Simian virus 40, UniProt P03070); type: functional, Betapolyomavirus macacae;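 also: Confirmatory-stage PubChem screen for compounds that inhibit SV40 T antigen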
Large T antigen, sequence (P03070 whole entry): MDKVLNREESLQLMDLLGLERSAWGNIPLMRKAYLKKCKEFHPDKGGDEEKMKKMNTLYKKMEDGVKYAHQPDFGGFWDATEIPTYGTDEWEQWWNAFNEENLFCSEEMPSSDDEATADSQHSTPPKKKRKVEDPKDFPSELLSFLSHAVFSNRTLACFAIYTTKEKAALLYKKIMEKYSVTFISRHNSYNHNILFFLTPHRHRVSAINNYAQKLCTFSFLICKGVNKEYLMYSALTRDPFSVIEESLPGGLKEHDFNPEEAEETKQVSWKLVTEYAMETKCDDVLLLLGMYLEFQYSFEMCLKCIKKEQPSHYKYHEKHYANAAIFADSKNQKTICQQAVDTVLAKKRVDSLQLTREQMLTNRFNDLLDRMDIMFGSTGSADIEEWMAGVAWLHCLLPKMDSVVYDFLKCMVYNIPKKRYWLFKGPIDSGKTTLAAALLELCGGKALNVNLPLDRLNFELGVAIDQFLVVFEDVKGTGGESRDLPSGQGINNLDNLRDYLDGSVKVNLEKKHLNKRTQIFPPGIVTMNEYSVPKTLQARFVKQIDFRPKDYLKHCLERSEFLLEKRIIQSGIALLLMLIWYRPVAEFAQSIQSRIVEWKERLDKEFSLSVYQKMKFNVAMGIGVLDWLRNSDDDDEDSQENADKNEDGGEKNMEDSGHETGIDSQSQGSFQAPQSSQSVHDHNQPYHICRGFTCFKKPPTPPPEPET

HeLa = assay: viability loss in HeLa cells – cell-based, 24 h, cherry-picked samples, cytotoxicity control, dose response (AID 504726); type: functional; conditions: Homo sapiens;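 also: potency for cytotoxicity as loss of luminescence signal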
[5] = luciferase reporter signal suppression in cells – H4 neuroglioma cells, luminescence, dose response (AID 1990); type: functional, cell-based
[6] = luciferase reporter signal reduction – luminescence, H4-C neuroglioblastoma cells, dose response (AID 2458); type: functional, cell-based;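 also: H4 neuroglioblastoma cells stably carrying a luciferase reporter gene fusion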
cells = type: functional, cell-based
[7] = Luminescence Cell-Based Dose Response HTS to Identify Inhibitors of 5'UTR Stem-Loop Driven Prion Protein mRNA Translation in H4 Neuroglioblastoma Cells. [Related pubchem assays: 1827 (Project Summary), 1813 (Primary HTS)]; type: functional
[8] = alpha-synuclein stem-loop luciferase translation blockers – H4 neuroglioma cells, luminescence, confirmation (AID 1988); type: functional, cell-based
[9] = alpha-synuclein stem-loop translation blockers – luminescence, H4 neuroglioblastoma cells, dose confirmation, confirmation (AID 2454); type: functional, cell-based;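 also: H4 neuroglioblastoma cells carrying an alpha-synuclein 5'UTR luciferase reporter; potency for inhibition of the luciferase signal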
[10] = HEK-293T viability loss after treatment – luminescence, T-cell screen hits, cytotoxicity control for TCR NF-kB inhibitor project, dose response (AID 489026); type: functional, cell-based;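 also: cells exposed to compound about 14 hours before the viability readout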
[11] = A Cell Based Secondary Assay To Explore Cytotoxicity of Compounds that Sensitize Mycobacterium Tuberculosis to Beta-Lactam Antibiotics.; type: functional
[12] = target: T1, RNA-binding protein pos-1 (Caenorhabditis elegans, UniProt G5EF15); assay: disruptors of C. elegans POS-1 RNA interaction – biochemical, fluorescence polarization, dose response (AID 1964);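 also: purified POS-1 fused to maltose binding protein made in E. coli; potency of compounds blocking POS-1 binding to fluorescent RNA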
T1 sequence (G5EF15 whole entry): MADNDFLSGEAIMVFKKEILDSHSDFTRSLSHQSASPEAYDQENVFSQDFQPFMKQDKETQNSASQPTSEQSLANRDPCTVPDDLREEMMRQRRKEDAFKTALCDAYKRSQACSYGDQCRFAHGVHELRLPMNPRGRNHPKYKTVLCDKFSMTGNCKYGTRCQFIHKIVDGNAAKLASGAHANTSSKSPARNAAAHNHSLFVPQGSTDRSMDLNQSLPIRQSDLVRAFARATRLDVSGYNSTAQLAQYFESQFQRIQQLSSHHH

[13] = target: T2, Zinc finger protein mex-5 (Caenorhabditis elegans, UniProt Q9XUB2); assay: potency of MEX-5 RNA-binding blockers – biochemical, C. elegans, fluorescence polarization, dose response (AID 1960)
T2 sequence (Q9XUB2 whole entry): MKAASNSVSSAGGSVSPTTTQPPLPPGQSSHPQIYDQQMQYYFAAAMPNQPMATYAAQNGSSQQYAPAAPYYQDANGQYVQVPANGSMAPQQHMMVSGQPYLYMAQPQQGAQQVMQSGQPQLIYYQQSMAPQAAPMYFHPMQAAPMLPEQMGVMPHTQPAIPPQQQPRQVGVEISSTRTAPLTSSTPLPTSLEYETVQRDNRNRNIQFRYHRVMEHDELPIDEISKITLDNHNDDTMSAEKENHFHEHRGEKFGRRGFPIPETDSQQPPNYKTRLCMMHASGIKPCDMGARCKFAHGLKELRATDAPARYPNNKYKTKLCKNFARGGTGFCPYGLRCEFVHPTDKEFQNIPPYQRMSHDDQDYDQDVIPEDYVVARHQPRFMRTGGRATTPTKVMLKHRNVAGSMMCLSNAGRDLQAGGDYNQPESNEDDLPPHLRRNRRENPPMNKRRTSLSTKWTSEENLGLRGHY

ORF 73 = target: T3, ORF 73 (Human herpesvirus 8, UniProt O40947); assay: KSHV LANA DNA-binding disruption – biochemical, fluorescence polarization, cherry-picked samples, dose response (AID 504725); design: species or system Human gammaherpesvirus 8;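 also: fluorescence polarization of a labeled DNA duplex reporting LANA DNA binding; potency is for inhibitors that block LANA binding to the DNA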
T3 sequence (O40947 whole entry): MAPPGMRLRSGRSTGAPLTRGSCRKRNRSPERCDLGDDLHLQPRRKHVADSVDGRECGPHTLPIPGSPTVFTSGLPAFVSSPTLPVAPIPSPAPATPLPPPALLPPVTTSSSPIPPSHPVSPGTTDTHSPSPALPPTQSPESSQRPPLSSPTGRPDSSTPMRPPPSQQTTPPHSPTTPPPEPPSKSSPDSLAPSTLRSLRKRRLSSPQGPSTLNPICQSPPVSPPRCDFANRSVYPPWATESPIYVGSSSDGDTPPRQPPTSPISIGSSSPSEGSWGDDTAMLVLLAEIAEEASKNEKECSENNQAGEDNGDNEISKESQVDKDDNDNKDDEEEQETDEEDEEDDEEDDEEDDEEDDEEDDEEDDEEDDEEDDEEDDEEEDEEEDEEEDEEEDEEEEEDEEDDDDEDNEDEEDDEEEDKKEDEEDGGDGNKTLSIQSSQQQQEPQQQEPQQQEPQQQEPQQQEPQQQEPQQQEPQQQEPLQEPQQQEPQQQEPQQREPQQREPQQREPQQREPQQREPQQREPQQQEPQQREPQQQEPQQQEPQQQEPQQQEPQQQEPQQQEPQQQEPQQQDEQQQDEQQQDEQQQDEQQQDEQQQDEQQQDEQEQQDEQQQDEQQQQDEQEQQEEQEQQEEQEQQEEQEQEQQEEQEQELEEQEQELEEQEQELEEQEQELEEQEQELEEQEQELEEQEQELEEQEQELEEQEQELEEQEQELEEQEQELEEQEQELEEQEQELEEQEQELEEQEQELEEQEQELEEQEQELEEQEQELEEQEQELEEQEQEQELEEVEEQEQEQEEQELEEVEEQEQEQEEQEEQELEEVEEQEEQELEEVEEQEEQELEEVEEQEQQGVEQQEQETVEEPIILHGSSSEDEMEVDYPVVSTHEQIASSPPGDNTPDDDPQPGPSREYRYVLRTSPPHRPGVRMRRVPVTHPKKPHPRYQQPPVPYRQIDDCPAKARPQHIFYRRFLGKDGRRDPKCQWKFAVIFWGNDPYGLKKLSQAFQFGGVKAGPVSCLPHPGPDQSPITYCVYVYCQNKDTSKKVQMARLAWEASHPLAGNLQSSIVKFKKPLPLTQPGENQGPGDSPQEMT

fMet-Leu-Phe receptor = target: T4, fMet-Leu-Phe receptor (Homo sapiens, UniProt P21462); assay: formyl peptide receptor binders – dose response (AID 519); type: functional
T4 sequence (P21462 whole entry): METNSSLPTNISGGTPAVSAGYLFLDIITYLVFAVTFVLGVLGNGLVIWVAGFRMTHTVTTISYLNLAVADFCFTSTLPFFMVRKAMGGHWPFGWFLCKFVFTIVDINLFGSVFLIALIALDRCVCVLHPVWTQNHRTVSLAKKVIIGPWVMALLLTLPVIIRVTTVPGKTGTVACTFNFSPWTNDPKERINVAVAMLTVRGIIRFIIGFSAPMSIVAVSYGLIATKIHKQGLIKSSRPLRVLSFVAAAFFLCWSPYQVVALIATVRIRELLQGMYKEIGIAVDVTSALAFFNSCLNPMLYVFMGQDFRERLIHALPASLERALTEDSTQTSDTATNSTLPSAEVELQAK

[14] = target: T5, Microphthalmia-associated transcription factor (Homo sapiens, UniProt O75030); assay: reducers of TRPM1 reporter luminescence, concentration series – cell-based, SK-MEL-5, cherry-picked, set 3, MITF inhibitor project, dose response (AID 493073); type: functional;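 also: SK-MEL-5 melanoma cells with luciferase driven by the MITF target TRPM1 promoter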
T5 sequence (O75030 whole entry): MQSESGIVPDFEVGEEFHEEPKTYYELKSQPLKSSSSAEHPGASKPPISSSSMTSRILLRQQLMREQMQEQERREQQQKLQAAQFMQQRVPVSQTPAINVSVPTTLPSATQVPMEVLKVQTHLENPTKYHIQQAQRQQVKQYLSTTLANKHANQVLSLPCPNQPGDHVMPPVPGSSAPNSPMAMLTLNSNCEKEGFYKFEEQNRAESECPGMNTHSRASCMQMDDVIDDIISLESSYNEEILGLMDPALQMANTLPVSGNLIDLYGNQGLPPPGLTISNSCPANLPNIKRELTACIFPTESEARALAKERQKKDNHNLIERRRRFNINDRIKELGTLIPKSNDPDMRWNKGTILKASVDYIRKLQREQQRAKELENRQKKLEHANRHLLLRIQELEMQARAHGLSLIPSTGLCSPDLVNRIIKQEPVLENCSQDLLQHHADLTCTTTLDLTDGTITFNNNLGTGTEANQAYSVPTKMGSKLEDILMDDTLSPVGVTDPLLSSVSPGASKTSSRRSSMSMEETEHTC

[15] = target: Eukaryotic translation initiation factor 4E (Mus musculus, UniProt P63073); assay: blockers of eIF4G binding by eIF4E – biochemical, TR-FRET, dose response (AID 855); type: functional;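 also: potency for disrupting eIF4E binding to eIF4GI seen as loss of FRET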
Eukaryotic translation initiation factor 4E, sequence (P63073 whole entry, the tested form may be a part): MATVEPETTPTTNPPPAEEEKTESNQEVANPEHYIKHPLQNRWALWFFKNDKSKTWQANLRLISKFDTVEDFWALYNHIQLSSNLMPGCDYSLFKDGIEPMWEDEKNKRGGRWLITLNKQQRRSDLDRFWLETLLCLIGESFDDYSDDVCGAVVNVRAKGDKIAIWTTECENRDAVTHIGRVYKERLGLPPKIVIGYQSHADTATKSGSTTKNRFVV

[16] = target: T6, Carboxy-terminal domain RNA polymerase II polypeptide A small phosphatase 1 (Homo sapiens, UniProt Q9GZU7); assay: CTDSP1 inhibitors, concentration-response, biochemical, absorbance readout, ultra-high-throughput screen actives (AID 540297); type: functional
T6 sequence (Q9GZU7 whole entry): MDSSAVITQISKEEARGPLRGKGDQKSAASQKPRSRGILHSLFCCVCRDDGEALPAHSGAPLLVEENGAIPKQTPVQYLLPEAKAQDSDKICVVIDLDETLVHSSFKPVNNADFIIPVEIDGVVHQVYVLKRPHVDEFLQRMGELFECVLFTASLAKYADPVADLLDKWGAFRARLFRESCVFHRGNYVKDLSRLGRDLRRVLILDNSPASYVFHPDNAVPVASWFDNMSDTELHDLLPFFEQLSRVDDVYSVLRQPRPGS

CCn1c(=O)cc(SCC(=O)N2CCN(C(=O)c3ccco3)CC2)c2ccccc21
EC50 [1]: > 79.4 µM (inactive)
EC50 [2]: > 79.4 µM (not active)
EC50 [3]: > 79.4 µM (not active)
IC50 [4]: > 80 µM (inactive)

CCOC(=O)N1CCN(CC(=O)Nc2ccc([N+](=O)[O-])cc2C(=O)Nc2ccccc2F)CC1
IC50 [4]: 51.6 µM (inactive)

Cc1cc(N)ccc1N=Nc1c(C)n(C)n(-c2ccccc2)c1=O
IC50 (Large T antigen): 33.9 µM (active)
AC50 (HeLa): 285 µM (active)

COc1cc(C(=O)N2CCN(c3cc(Cl)ccc3Cl)CC2)cc(OC)c1OC
EC50 [5]: 0.148 µM (active)
EC50 [6]: 0.352 µM (active)
EC50 (cells): 0.457 µM (active)
EC50 [7]: 0.164 µM (active)
EC50 [8]: < 0.1 µM (active)
EC50 [9]: 0.575 µM (active)
IC50 [10]: > 80 µM (inactive)

COc1ccc(-c2noc(N3CCC(C(=O)Nc4cccc(OC)c4)CC3)n2)cc1
IC50 [4]: > 80 µM (inactive)

CCCc1nc(SC)nc(O)c1C
AC50 (HeLa): 81.7 µM (active)

COc1ccc(-c2ccc(N(C)C)cc2)cc1[C@H]1[C@H]2C=CC[C@@H](C)[C@@H]2C(=O)N1Cc1ccccc1
IC50 [4]: > 80 µM (inactive)

COc1cc(C(=O)Nc2cccc(-c3cn4cccnc4n3)c2)cc(OC)c1OC
CC50 [11]: > 40 µM (active)

COc1ccc(C2C(C(=O)c3cccs3)=C(O)C(=O)N2c2nnc(C)s2)cc1OC (configuration not stated)
EC50 [12]: 7.2 µM (active)
EC50 [13]: 5.19 µM (active)
AC50 (HeLa): > 350 µM (inactive)
AC50 (ORF 73): 17.5 µM (active)
Ki (fMet-Leu-Phe receptor): > 66.7 µM (inactive)

Nc1ccc(-c2ncc(-c3ccccc3)o2)cc1
EC50 [5]: < 0.1 µM (active)
EC50 [6]: 0.044 µM (active)
EC50 (cells): 0.178 µM (active)
EC50 [7]: < 0.1 µM (active)
EC50 [8]: < 0.1 µM (active)
EC50 [9]: 0.07 µM (active)
AC50 [14]: 0.171 µM (active)

COc1ccc(OC)c(NC(=O)COC(=O)c2cc3c(s2)CCC3)c1
IC50 [15]: 50 µM (inactive)
IC50 [16]: 2.39 µM (active)
